Legend:
[1] = target: T1, Histamine H3 receptor (Rattus norvegicus, UniProt Q9QYN8); assay: Compound was evaluated for antagonistic effect on release of [3H]histamine from rat brain cortical slices with L-[3H]histidine at 0.3 uM; assay type: functional, tissue-based
[2] = species on record: Rattus norvegicus; assay: Concentrations required for half-maximal inhibition of tritiated amine release from rat cortical slices; assay type: functional
[3] = system: Mus musculus; assay: Compound was tested for in vivo in mice which produced a decrease in the brain level of N-tele-methylhistamine when administered orally; assay type: functional; details: po
[4] = target: T1, Histamine H3 receptor; assay: The compound was evaluated for agonistic effect on release of [3H]histamine from rat brain cortical slices with L-[3H]histidine at 0.3 uM; assay type: functional, tissue-based
[5] = target: T1, Histamine H3 receptor; assay: The compound was evaluated for antagonistic effect on release of [3H]histamine from rat brain cortical slices with L-[3H]histidine at 0.3 uM; assay type: functional, tissue-based

T1 sequence (Q9QYN8 whole entry): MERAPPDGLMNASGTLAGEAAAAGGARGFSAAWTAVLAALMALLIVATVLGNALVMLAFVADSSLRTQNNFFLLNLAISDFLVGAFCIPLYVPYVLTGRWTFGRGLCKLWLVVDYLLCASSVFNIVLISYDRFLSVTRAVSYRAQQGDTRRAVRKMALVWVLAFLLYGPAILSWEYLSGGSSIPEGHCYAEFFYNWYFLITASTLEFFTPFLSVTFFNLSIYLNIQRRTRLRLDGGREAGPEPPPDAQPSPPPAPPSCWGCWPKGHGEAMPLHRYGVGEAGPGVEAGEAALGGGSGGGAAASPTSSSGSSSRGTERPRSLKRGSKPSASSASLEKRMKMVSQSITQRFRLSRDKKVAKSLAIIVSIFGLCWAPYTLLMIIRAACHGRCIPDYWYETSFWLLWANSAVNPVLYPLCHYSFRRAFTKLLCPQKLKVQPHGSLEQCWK

SMILES | ED50 [3] [mg/kg] | Ki [5] [nM] | other results
C/N=C(/SCCc1c[nH]cn1)N(C)C | – | – | Ki [1]: ≥ 500 nM; EC50 [2]: 1 nM
Br.CNC(=N)SCCc1c[nH]cn1 | 25 | – | EC50 [4]: 15 nM
c1nc(CCSC2=NCCN2)c[nH]1 | – | 260 | –
Br.N=C(N)SCCc1c[nH]cn1 [IMETIT DIHYDROBROMIDE] | ~1 | – | –
CN(C)C(=N)SCCc1c[nH]cn1 | – | 500 | –
C/N=C(\NC)SCCc1c[nH]cn1 | – | 51 | –

From ChEMBL document CHEMBL1151514, “Imetit and N-methyl derivatives. The transition from potent agonist to antagonist at histamine H3 receptors.1” (Bioorg Med Chem Lett, 1992)
